{"source": "patent US7160887B1", "about": "“Aromatic amine derivatives, their production and use” (Takeda Pharmaceutical Company Limited, priority 1998, dated 2007)", "note": "Structures can show the parent of a compound that is named as a salt."}
{"smiles": "NCCc1cccc(Oc2cc(Cl)ccc2N(Cc2ccc(-c3ccccc3)cc2)C(=O)CCC(=O)NCc2ccccc2F)c1", "note": "(as salt: hydrochloride) [Example 14, N-[2-[3-(2-aminoethyl)phenoxy]-4-chlorophenyl]-N-(4-biphenylmethyl)-N′-(2-fluorobenzyl)succinamide hydrochloride]", "values": [{"measurement": "melting point", "result": "123 to 125", "unit": "°C"}]}
